The source made the active and inactive calls.
How the values were obtained:
Aminopeptidase N = molecular target: T1, Aminopeptidase N (Plasmodium falciparum FcB1/Columbia, UniProt O96935); assay: malaria alanyl aminopeptidase activity blockers – biochemical, fluorogenic H-Leu-NHMec substrate, 1536-well (AID 1445); design: species or system Plasmodium falciparum 3D7, 3D7
T1 sequence (O96935 whole entry): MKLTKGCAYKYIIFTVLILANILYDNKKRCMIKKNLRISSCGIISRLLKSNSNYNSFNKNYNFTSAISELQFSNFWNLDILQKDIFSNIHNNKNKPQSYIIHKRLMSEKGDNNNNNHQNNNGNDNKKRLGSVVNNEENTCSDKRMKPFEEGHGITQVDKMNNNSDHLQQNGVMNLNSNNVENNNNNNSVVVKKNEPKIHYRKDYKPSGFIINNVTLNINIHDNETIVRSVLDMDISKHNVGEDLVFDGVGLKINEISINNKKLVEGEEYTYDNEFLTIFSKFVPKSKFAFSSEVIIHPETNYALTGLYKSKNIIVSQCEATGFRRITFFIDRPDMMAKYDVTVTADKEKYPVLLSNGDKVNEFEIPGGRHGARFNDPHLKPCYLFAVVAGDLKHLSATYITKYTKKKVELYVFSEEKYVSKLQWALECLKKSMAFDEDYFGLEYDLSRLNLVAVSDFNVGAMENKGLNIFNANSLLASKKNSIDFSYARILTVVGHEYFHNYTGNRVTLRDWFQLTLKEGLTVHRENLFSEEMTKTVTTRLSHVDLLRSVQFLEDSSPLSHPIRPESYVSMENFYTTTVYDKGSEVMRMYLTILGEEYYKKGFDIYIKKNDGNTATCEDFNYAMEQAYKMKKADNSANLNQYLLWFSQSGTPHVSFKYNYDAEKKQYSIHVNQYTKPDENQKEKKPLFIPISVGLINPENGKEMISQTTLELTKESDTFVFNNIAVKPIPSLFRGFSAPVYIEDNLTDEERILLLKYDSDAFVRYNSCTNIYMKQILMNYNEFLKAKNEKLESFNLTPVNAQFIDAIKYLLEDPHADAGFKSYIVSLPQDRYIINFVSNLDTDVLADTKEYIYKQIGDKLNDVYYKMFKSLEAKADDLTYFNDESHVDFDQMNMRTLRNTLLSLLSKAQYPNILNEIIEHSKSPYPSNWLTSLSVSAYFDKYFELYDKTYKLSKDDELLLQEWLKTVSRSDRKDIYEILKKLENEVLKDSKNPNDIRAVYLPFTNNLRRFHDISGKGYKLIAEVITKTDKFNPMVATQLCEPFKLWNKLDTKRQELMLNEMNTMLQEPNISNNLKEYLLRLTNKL

HEK293 = assay: EBV LMP1 TES2 canonical NF-kB signalling blockers – cell-based, HEK293, luciferase, cherry-pick, dose response (AID 588343); format: functional; conditions: Homo sapiens
Genome polyprotein = Genome polyprotein (dengue virus type 2, UniProt P29990); assay: flavivirus cap methylation enzyme inhibition – biochemical, confirmation dose response, primary screen (AID 588689); format: functional
Chain of Genome polyprotein (P29990 2492-3391 limits assumed): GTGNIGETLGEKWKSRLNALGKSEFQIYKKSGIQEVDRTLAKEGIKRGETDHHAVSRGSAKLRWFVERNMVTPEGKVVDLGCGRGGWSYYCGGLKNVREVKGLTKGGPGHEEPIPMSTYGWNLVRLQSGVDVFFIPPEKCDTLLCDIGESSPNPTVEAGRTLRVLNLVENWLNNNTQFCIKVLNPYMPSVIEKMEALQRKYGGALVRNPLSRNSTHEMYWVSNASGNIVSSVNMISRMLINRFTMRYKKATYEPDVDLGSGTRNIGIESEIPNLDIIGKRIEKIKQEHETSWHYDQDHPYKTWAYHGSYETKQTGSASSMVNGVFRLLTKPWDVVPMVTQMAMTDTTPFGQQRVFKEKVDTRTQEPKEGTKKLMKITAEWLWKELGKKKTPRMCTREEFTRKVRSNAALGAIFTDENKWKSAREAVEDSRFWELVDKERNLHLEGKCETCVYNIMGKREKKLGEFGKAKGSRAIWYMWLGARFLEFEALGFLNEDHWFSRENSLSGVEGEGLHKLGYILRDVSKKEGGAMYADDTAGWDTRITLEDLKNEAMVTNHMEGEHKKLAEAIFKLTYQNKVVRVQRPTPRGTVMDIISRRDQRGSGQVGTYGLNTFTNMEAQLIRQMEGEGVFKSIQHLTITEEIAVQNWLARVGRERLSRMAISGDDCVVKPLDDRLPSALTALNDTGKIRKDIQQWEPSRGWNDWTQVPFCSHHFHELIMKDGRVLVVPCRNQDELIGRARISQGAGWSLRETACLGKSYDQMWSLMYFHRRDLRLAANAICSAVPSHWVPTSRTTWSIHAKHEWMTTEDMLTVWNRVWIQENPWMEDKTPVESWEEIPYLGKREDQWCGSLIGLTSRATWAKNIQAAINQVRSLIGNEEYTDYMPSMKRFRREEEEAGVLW

[1] = molecular target: Nuclear receptor subfamily 5 group A member 2 (Homo sapiens, UniProt O00482); format: functional, cell-based;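 further: HEK293T cells transfected with LRH-1 and a StAR promoter luciferase reporter; potency for inhibitors that lower LRH-1 driven reporter light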
Chain of Nuclear receptor subfamily 5 group A member 2 (O00482 whole entry): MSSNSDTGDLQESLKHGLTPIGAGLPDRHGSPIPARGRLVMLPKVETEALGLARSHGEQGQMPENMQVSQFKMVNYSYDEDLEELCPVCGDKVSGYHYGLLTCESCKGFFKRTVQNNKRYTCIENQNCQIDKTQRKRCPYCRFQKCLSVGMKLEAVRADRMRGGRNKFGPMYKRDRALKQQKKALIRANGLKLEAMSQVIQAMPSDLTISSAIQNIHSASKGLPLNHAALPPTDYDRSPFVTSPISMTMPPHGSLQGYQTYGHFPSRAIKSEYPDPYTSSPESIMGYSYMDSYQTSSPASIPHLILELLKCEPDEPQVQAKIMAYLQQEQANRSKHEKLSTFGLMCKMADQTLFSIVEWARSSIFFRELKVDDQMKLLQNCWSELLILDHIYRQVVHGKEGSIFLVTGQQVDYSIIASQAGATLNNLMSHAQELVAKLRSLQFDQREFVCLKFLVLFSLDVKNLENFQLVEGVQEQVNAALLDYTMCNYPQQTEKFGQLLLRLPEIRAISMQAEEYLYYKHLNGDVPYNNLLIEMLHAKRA

Steroidogenic factor 1 = Steroidogenic factor 1 (Homo sapiens, UniProt Q13285); assay: Counterscreen for inverse agonists of the liver receptor homolog-1 (LRH-1; NR5A2): Luminescence-based cell-based high throughput dose response assay to identify inverse agonists of the Steroidogenic Factor 1 Nuclear Receptor (SF1; NR5A1).; format: functional
Chain of Steroidogenic factor 1 (Q13285 whole entry): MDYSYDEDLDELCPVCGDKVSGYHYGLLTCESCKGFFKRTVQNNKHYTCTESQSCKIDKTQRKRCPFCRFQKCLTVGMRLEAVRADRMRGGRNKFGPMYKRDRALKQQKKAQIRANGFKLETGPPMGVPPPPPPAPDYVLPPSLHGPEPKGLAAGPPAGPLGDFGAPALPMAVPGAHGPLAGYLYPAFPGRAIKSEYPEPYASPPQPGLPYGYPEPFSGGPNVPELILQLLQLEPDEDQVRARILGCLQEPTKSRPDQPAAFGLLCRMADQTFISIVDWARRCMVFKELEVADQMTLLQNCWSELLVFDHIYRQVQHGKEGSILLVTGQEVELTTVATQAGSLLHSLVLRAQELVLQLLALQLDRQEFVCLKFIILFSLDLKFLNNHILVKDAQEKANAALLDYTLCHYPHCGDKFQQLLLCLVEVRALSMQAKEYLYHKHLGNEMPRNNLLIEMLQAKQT

[2] = nonselective StAR promoter luciferase inhibitors – cell-based, luminescence, luciferase reporter, counter-screen for LRH-1 inverse agonist project, dose response (AID 651969); format: functional
[3] = system: Streptococcus sp. 'group A'; assay: Streptococcus pyogenes SK(-)GAS viability under kanamycin – luminescence, BacTiterGlo, confirmation, counter-screen for streptokinase expression inhibitor project, dose response (AID 1900); format: functional, organism-based
Streptokinase A = molecular target: T2, Streptokinase A (Streptococcus pyogenes serotype M1, UniProt P10520); assay: viability-normalized secreted streptokinase activity reduction – plasminogen activation absorbance, OD405, dose response (AID 1914); format: functional, Streptococcus pyogenes M1 GAS;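 further: secreted streptokinase activity via plasminogen activation per viability signal from cell pellet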
T2 sequence (P10520 whole entry): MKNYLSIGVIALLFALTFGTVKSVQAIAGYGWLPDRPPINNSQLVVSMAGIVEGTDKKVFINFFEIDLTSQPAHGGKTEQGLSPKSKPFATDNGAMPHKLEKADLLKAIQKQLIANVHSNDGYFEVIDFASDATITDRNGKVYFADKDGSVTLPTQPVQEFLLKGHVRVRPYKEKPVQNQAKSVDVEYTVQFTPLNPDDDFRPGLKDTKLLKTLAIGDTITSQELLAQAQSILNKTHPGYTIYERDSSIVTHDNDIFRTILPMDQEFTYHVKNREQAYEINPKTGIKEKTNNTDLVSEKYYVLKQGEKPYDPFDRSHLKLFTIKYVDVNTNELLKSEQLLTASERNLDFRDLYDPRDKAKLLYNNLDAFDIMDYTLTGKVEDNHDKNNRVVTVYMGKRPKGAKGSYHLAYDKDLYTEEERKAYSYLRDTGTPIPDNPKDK

[4] = Trypanosoma cruzi growth suppression in host cells – NIH3T3 host cells, beta-gal luminescence, confirmation (AID 2044); format: functional, cell-based;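 further: intracellular parasites grown in NIH/3T3 mouse fibroblasts as host cells; luminescent beta-galactosidase reporter signal from transgenic T. cruzi replicating inside host cells; inhibitors lower the luminescence signal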
[5] = NIH3T3 cell viability loss – ATP luminescence, mouse fibroblasts, counter-screen, dose response (AID 2010); format: functional, cell-based;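 further: cells exposed to compound for about 90 hours before reading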
Streptococcus = assay: GAS UMAA2166 growth inhibition – luminescence, BacTiterGlo, counter-screen for streptokinase expression inhibitor project, dose response (AID 1915); format: functional, organism-based;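 further: potency for reduction of bacterial viability or growth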
cells [6] = format: functional, cell-based
cells [7] = format: functional, cell-based; remark: listed apart in the source
INS1 = assay: INS-1E survival protection against cytokine death – cell-based, luminescence, retest, dose response (AID 449756); format: functional; conditions: Rattus norvegicus;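 further: cell death triggered by IL-1 beta plus TNF-alpha plus IFN-gamma mixture; protective hits raise ATP signal compared with cytokine alone wells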
[8] = blockade of melanocortin 4 receptor signaling – cell-based, plate reader, cherry pick, counter-screen for LGR2 antagonist project, dose response (AID 743444); format: functional;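 further: transfected HEK 293 cells stimulated with alpha-MSH peptide; potency of inhibitors of the alpha-MSH evoked signal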
[9] = blockers of HIV-1 envelope-mediated cell-cell fusion – cherry-pick, dose response (AID 652057); format: functional, cell-based
[10] = blockers of HIV-1 ZM109 envelope-driven cell-cell fusion – HeLa effector, CEM target cells, luciferase, cherry-pick, dose response (AID 652058); format: functional, cell-based;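 further: luciferase signal from HIV-1 Env mediated cell-cell fusion of effector and target cells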
[11] = off-target signal loss in HeLa-CEM21 co-culture – HeLa F-luc CTL cells, cherry-picked, counter-screen for HIV-1 Env fusion inhibitor project, dose response (AID 652040); format: functional, cell-based;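 further: potency for signal decrease marking cytotoxic or nonspecific inhibition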
[12] = HIV-1 AD8 envelope cell-cell fusion blockers – cherry-pick, dose response (AID 652062); format: functional, cell-based;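 further: luciferase signal from cell-cell fusion driven by HIV-1 clade B AD8 Env; potency is for inhibitors of fusion seen as a drop in luminescence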
[13] = molecular target: T3, Replicative DNA helicase DnaB (Mycobacterium tuberculosis, UniProt P9WMR3); assay: DnaB intein splicing inhibitors, dose response, biochemical, cell-free fluorescence (AID 449749); format: functional
T3 sequence (P9WMR3 whole entry): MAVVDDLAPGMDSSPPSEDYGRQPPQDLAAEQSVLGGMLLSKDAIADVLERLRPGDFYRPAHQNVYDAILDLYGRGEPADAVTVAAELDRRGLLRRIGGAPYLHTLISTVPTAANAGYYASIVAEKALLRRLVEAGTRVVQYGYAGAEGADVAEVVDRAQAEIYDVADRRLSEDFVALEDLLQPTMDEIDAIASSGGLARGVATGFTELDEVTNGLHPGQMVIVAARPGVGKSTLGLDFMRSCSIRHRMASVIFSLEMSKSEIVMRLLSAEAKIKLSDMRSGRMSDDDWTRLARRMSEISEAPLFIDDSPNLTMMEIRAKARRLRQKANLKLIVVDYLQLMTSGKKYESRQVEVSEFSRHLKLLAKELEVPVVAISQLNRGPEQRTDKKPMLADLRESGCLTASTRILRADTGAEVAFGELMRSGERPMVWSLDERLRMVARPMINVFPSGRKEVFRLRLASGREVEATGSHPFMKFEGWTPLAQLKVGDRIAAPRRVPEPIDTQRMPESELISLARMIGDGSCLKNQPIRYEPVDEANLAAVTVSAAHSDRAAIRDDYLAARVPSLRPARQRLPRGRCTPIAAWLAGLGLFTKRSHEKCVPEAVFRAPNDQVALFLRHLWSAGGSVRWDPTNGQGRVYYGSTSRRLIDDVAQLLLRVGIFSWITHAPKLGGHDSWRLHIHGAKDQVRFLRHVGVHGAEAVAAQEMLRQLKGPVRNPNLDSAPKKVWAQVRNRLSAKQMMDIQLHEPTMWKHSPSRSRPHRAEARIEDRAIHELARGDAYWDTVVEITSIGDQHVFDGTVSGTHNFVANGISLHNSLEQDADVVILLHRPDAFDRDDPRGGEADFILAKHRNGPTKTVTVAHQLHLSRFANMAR

Protein RecA = molecular target: T4, Protein RecA (Mycobacterium tuberculosis, UniProt P9WHJ3); assay: Fluorescence Cell-Free Homogeneous Dose Retest to Identify Inhibitors of RecA-Intein Splicing Activity. [Related pubchem assays (depositor defined):AID2097, AID2223, AID489010, AID492950]; format: functional
T4 sequence (P9WHJ3 whole entry): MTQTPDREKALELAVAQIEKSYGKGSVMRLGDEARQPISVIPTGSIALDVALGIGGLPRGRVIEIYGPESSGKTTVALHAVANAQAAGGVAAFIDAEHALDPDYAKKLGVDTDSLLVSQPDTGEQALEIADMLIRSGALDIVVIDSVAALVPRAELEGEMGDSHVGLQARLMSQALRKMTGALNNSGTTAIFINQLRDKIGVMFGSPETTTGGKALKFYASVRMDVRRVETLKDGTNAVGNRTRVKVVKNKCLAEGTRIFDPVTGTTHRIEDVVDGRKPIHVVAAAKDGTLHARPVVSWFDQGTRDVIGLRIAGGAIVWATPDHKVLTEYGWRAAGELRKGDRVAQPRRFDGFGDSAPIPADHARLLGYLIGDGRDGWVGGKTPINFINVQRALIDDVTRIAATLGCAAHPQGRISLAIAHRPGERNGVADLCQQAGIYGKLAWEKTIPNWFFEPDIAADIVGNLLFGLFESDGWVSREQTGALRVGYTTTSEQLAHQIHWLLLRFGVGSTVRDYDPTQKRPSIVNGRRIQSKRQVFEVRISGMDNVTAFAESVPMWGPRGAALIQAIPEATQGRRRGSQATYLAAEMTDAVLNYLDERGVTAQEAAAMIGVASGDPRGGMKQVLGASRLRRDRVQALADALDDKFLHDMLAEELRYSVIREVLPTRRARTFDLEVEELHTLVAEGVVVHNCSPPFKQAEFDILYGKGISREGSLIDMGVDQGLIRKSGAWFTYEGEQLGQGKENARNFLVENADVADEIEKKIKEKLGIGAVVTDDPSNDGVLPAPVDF

Compound | AC50 (HEK293) | IC50 [1] | IC50 (Steroidogenic factor 1) | IC50 [2] | other results
Cc1nnc(SCC(=O)N2CCC(c3noc4ccc(F)cc34)CC2)s1 | 9.92 µM (active) |  |  |  | IC50 (Aminopeptidase N): 39.1 µM (active)
O=C1/C(=C2\C(=O)N(Cc3ccc(F)cc3)c3ccccc32)SC(=S)N1CCS(=O)(=O)O |  |  |  |  | IC50 (Genome polyprotein): 32.5 µM (active)
Cc1ccc(NC(=O)CSc2sc3c(O)cc(O)nc3c2C#N)c(F)c1 |  | 35.9 µM (inactive) | 35.9 µM (inactive) | 35.9 µM (inactive) | 
Cc1ccc(-c2csc(NC(=O)c3ccc([N+](=O)[O-])o3)n2)cc1 |  | 35.9 µM (inactive) | 4.48 µM (active) | 35.9 µM (inactive) | EC50 [3]: 1.89 µM (active); EC50 (Streptokinase A): 62.4 µM (active); EC50 [4]: 0.37 µM (active); EC50 [5]: 12.2 µM (active); EC50 (Streptococcus): > 150 µM (not active)
N#Cc1ccc(-c2csc(NNC(=O)c3ccc(Br)cc3)n2)cc1 | 8.39 µM (active) |  |  |  | EC50 (cells [6]): > 350 µM (not active); EC50 (cells [7]): > 350 µM (not active); AC50 (INS1): 7.72 µM (active)
O=C(CN1CCOc2ccccc21)NCc1ccc(F)cc1 |  |  |  |  | AC50 [8]: 29.2 µM (active)
Cc1nnc(SCC(=O)Nc2ccc(Br)cc2)n(N)c1=O |  | 35.9 µM (inactive) | 20.1 µM (inactive) | 35.9 µM (inactive) | 
CC[C@]1(C(=O)OC)[C@H]2C(=O)N(Cc3ccccc3)C(=O)[C@H]2[C@H]2CN=C(SCc3ccc(C#N)cc3)N21 | 4.97 µM (active) |  |  |  | AC50 [9]: 0.709 µM (active); AC50 [10]: 1.07 µM (active); AC50 [11]: 1.45 µM (active); AC50 [12]: 5.1 µM (active)
C=CCn1c(=O)/c(=C/c2ccc(Cl)cc2)s/c1=C(\C#N)c1nnc2n1CCCCC2 | 23.9 µM (active) |  |  |  | 
Cc1cccc(CN2C(=O)CSc3ccc(C(=O)NC4CC4)cc32)c1 |  | 1.89 µM (active) | 1.21 µM (active) | 20.1 µM (inactive) | 
CC(=O)Nc1cc(-c2cccc(F)c2)cn2c(-c3ccc(S(C)(=O)=O)cc3)cnc12 |  | 5.75 µM (active) | 2.36 µM (active) | 31.1 µM (inactive) | 
Cc1[nH]n(-c2ccccc2)c(=O)c1C(c1ccccc1[N+](=O)[O-])C(C#N)C#N (stereo not given) |  |  |  |  | AC50 [13]: 3.3 µM (active); EC50 (Protein RecA): 7.28 µM (active); IC50 (Genome polyprotein): 86.4 µM (active)
CCOc1cc(/C=N/n2nnnc2N)ccc1OCc1c(C)no[n+]1[O-] |  | 11.8 µM (inactive) | 2.22 µM (active) | 35.9 µM (inactive) | 

From ChEMBL document CHEMBL1201862, “PubChem BioAssay data set” (2004)
